# From ChEMBL document CHEMBL1201862, “PubChem BioAssay data set” (2004)
# Activity calls are given as the source filed them.
# Tests used:
# [1] = molecular target: Glyceraldehyde-3-phosphate dehydrogenase (Homo sapiens, UniProt P04406)
# [2] = molecular target: T1, Alkaline phosphatase, tissue-nonspecific isozyme (Homo sapiens, UniProt P05186); assay: potency against alkaline phosphatase TNAP – biochemical, luminescent, dose response, SAR follow-up (AID 1056)
# T1 sequence (P05186 whole entry): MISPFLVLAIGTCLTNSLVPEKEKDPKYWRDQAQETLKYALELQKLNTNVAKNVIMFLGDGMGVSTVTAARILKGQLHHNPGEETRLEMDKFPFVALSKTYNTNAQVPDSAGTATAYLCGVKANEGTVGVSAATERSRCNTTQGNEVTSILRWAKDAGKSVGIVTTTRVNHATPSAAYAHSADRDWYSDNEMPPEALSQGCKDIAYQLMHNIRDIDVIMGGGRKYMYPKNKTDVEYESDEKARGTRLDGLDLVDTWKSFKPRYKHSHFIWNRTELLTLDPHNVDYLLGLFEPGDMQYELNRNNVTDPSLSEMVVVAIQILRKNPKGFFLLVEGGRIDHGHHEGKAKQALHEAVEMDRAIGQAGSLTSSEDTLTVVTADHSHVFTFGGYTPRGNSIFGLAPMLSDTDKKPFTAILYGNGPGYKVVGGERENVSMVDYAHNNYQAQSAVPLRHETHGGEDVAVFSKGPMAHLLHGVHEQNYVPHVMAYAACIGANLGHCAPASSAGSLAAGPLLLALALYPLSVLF
# [3] = molecular target: T2, DNA dC->dU-editing enzyme APOBEC-3A (Homo sapiens, UniProt P31941); assay: Dose Response confirmation of small molecule APOBEC3A DNA Deaminase Inhibitors via a fluorescence-based single-stranded DNA deaminase assay. [Related pubchem assays (depositor defined):AID493011, AID493024]; assay type: functional
# T2 sequence (P31941 whole entry): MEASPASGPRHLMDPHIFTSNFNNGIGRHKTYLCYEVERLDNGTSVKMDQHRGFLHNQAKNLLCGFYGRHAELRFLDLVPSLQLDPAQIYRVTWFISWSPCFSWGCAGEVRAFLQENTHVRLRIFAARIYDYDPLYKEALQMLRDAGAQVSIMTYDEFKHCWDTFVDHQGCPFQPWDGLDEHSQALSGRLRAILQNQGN
# [4] = molecular target: T3, DNA dC->dU-editing enzyme APOBEC-3G (Homo sapiens, UniProt Q9HC16); assay type: functional
# T3 sequence (Q9HC16 whole entry): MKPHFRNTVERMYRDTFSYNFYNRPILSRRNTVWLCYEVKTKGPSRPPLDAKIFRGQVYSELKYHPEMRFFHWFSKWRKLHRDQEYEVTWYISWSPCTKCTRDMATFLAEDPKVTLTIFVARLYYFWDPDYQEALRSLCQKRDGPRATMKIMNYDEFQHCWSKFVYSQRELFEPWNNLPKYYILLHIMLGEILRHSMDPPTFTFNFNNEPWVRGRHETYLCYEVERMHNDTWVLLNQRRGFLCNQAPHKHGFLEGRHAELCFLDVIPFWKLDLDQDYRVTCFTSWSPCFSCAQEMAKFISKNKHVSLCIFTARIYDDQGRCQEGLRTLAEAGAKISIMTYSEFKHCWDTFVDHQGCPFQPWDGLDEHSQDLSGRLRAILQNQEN
# [5] = molecular target: T4, G-protein coupled receptor 55 (Homo sapiens, UniProt Q9Y2T6); assay: selective activators of receptor GPR55 – imaging, U2OS cells, beta-arrestin-GFP redistribution, primary screen (AID 1961); assay type: functional
# T4 sequence (Q9Y2T6 whole entry): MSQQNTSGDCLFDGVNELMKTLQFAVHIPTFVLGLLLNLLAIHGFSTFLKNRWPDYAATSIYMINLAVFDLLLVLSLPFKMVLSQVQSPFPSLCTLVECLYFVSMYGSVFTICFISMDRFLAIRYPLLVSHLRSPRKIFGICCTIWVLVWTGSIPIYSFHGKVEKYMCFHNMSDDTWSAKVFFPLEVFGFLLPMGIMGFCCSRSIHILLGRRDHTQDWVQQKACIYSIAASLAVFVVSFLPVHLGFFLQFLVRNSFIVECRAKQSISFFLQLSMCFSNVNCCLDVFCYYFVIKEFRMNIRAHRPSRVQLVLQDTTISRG
# [6] = molecular target: T4, G-protein coupled receptor 55; assay: inhibition of LPI-stimulated GPR55 beta-arrestin translocation – imaging, U2OS, beta-arrestin-GFP, LPI agonist, primary screen (AID 2013); assay type: functional;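 note: antagonist potency measured as reduced agonist-driven arrestin aggregation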
# [7] = molecular target: T2, DNA dC->dU-editing enzyme APOBEC-3A; assay: A3A deaminase inhibition for selectivity – biochemical, dose response (AID 504722); assay type: functional
# [8] = molecular target: T3, DNA dC->dU-editing enzyme APOBEC-3G; assay: Dose Response confirmation of small molecule APOBEC3G DNA Deaminase Inhibitors via a fluorescence-based single-stranded DNA deaminase assay. [Related pubchem assays (depositor defined):AID493012, AID493028]; assay type: functional
# [9] = molecular target: FAD-linked sulfhydryl oxidase ALR (Homo sapiens, UniProt P55789); assay: ALR-catalysed DTT oxidation blockers – biochemical, H2O2 detection, luminescence, cherry-pick, dose response (AID 493248)
# Sequence of FAD-linked sulfhydryl oxidase ALR (P55789 whole entry): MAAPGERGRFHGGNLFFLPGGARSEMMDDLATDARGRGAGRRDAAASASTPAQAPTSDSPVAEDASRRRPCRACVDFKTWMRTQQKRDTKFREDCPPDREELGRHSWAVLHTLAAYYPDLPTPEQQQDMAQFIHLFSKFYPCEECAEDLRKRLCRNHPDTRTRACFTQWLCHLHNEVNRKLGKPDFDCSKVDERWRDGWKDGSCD
# [10] = molecular target: T5, Rac GTPase-activating protein 1 (Homo sapiens, UniProt Q9H0H5); assay: blockers of MgcRacGAP-driven Rac1 GTP hydrolysis – biochemical, ADP Hunter fluorescence, primary and confirmatory, confirmation (AID 624330); assay type: functional
# T5 sequence (Q9H0H5 whole entry): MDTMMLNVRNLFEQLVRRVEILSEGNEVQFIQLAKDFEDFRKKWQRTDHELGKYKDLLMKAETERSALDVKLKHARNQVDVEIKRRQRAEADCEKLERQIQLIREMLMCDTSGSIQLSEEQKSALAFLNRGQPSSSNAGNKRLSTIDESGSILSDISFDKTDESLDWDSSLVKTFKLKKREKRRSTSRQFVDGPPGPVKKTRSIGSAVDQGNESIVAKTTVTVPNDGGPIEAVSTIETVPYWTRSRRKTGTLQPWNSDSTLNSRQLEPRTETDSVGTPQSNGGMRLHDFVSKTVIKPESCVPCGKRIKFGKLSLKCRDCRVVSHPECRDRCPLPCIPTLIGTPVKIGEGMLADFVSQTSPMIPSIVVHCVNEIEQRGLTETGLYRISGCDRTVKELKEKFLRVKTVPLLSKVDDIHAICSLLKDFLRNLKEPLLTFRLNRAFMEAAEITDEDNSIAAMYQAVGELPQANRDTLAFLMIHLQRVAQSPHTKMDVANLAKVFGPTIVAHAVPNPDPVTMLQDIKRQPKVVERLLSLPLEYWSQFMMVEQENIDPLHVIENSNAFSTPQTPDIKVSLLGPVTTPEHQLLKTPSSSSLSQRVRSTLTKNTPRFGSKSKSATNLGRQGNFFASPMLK
# [11] = molecular target: T6, Carboxy-terminal domain RNA polymerase II polypeptide A small phosphatase 1 (Homo sapiens, UniProt Q9GZU7); assay: CTDSP1 inhibitors, concentration-response, biochemical, absorbance readout, ultra-high-throughput screen actives (AID 540297); assay type: functional
# T6 sequence (Q9GZU7 whole entry): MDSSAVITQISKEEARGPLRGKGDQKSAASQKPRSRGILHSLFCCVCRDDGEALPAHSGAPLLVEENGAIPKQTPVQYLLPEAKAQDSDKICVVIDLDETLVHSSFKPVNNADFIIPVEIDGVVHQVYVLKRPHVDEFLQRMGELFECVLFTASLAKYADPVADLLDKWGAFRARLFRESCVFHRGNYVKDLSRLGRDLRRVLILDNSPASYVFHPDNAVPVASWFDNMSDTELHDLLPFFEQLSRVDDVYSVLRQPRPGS
# Caspase-6 = molecular target: T7, Caspase-6 (Homo sapiens, UniProt P55212); assay: inhibition of CASP6 peptide cleavage – biochemical, VEID-R110 fluorescence, cherry-pick, dose response (AID 720632)
# T7 sequence (P55212 whole entry): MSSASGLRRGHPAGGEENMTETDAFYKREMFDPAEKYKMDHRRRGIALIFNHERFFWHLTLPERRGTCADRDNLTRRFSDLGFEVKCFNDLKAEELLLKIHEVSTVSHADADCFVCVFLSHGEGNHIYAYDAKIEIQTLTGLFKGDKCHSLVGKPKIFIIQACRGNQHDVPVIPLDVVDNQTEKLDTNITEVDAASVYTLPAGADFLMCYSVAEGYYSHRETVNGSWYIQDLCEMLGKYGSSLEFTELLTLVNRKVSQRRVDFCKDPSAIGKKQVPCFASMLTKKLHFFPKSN
# cells = assay type: functional
# [12] = molecular target: Alkaline phosphatase, placental type (Homo sapiens, UniProt P05187); assay: human placental alkaline phosphatase inhibition – biochemical, luminescence, confirmation (AID 1512); assay type: functional
# Sequence of Alkaline phosphatase, placental type (P05187 whole entry): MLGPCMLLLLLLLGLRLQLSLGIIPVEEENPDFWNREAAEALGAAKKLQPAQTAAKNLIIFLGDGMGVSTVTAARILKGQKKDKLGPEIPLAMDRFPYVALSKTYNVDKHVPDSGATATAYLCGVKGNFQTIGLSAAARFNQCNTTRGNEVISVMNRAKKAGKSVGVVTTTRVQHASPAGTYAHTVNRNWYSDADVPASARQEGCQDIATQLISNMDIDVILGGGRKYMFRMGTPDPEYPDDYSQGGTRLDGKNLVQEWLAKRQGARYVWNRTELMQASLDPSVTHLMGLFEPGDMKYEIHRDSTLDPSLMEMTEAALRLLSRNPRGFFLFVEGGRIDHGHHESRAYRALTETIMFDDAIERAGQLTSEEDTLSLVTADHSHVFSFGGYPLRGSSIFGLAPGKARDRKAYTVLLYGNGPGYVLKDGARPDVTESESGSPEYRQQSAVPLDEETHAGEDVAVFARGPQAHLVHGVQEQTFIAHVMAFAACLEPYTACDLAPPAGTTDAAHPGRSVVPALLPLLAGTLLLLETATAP
# Sequence of Glyceraldehyde-3-phosphate dehydrogenase (P04406 whole entry): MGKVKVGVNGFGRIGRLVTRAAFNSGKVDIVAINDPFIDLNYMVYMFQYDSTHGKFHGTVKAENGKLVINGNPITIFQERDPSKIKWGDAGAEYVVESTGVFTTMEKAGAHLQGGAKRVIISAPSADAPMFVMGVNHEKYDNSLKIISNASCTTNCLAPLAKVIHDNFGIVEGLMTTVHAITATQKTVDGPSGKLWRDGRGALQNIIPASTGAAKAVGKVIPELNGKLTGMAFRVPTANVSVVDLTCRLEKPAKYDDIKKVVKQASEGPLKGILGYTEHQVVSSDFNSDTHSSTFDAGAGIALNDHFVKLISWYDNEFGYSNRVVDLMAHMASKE
structure (smiles),measurement,setting,value
O=C1c2ccccc2C(=O)N1c1nncs1,IC50,[1],> 100 µM (not active)
same,IC50,[2],> 100 µM (inactive)
Cc1c2ccccc2cc(Cc2ccccc2)[n+]1C,IC50,[3],3.64 µM (active)
same,IC50,[4],2.98 µM (active)
COc1ccc(SC[C@H](CC(C)C)N2CCN(CCc3ccccc3)CCC2=O)cc1,EC50,[5],10.8 µM (inactive)
COc1ccc(/C=N/NC(=O)c2cc(C34CC5CC(CC(C5)C3)C4)[nH]n2)cc1OC,IC50,[6],2.74 µM (active)
Cc1ccc(/C=N/n2c(S)nnc2-c2cccnc2)s1,IC50,[7],> 100 µM (inactive)
same,IC50,[8],2 µM (active)
same,AC50,[9],2.34 µM (active)
same,IC50,[10],53.9 µM (active)
O=C1C2C(C(=O)N1/N=C/c1cc([N+](=O)[O-])c(O)cc1O)C1C=CC2C12CC2 (stereo not drawn),IC50,[3],11.3 µM (active)
same,IC50,[4],40.2 µM (active)
same,IC50,[11],4.9 µM (active)
same,AC50,Caspase-6,3.41 µM (active)
CC(NC(=O)COc1ccc(-c2ccccc2)cc1)C1CCCO1 (stereo not drawn),IC50,cells,45.6 µM (active)
COC(=O)c1ccc(Cn2cc(C(F)(F)F)cc([N+](=O)[O-])c2=O)cc1,IC50,cells,1.28 µM (active)
CCOC(=O)COc1ccc(C(=O)c2ccccc2)c(O)c1,IC50,cells,3.02 µM (active)
Cc1ccc(C)c(NC(=S)NC(NC(=O)Cc2cccc3ccccc23)C(Cl)(Cl)Cl)c1 (stereo not drawn),IC50,[12],11.5 µM (active)
same,IC50,[2],> 100 µM (inactive)
COC(=O)C1=C(C)N(CC2CC2)C(=NCCN2CCOCC2)N[C@H]1c1ccccc1,IC50,[3],5.16 µM (active)
same,IC50,[4],4.91 µM (active)
Sc1nc(-c2ccc(Cl)cc2Cl)n[nH]1,IC50,[1],> 100 µM (not active)
same,IC50,[12],> 100 µM (inactive)
same,IC50,[2],> 100 µM (inactive)
COc1ccc(-c2c(-c3ccc(OCC(=O)NN)cc3O)n[nH]c2C(F)(F)F)cc1,IC50,[6],2.75 µM (active)
CC1(C)CC(=O)c2c(-c3ccc(F)cc3)n[nH]c2C1,IC50,[1],> 100 µM (not active)
same,IC50,[12],> 100 µM (inactive)
same,IC50,[2],5.95 µM (active)
